According to patent publication US20220354108A1, “PRESERVATION METHODS USING TREHALOSE WITH OTHER CRYOPROTECTANTS BEING ABSENT FROM THE CRYOPRESERVATION PROTOCOL” (TISSUE TESTING TECHNOLOGIES LLC, priority 2021, published 2022):
Like-named read-outs stand apart in the source and are kept apart here.

Columns and labels:
Type in all cases: cell-based
[1] = tested on: bone marrow-derived human mesenchymal stem cells (hMSCs); conditions: for hMSC viability compared with DMSO control groups: 0.2 M trehalose
Procedure: Experiments were performed using bone marrow-derived human mesenchymal stem cells (hMSCs) from various commercial sources Human Bone-Marrow Derived Mesenchymal Stem/Stromal Cells (hBM-MSCs) were isolated from normal healthy adult donors (purchased from a commercial source (such as Rooster-Bio) along with the appropriate growth media). Cells were grown according to the manufacturer's instructions).
Prior to the development of the methodology of the present disclosure, the inventors of the instant application previously assessed a nanotechnology for intracellular trehalose delivery developed by Professor Xiaoming He, University of Maryland (Zhang et al., Cold-Responsive Nanoparticle Enables Intracellular Delivery and Rapid Release of Trehalose for Organic-Solvent-Free Cryopreservation, Nano Lett. 2019, 19, 9051-9061; Rao et al., Nanoparticle-Mediated Intracellular Delivery Enables Cryopreservation of Human Adipose-Derived Stem Cells Using Trehalose as the Sole Cryoprotectant, ACS Appl Mater Interfaces, 2015, 7(8), 5017-5028), that they had shown promoted cryopreservation of adipose tissue derived hMSCs, for bone marrow-derived MSCs. Unfortunately, the trehalose nanotechnology failed during these studies, probably due to instability of the trehalose nanoparticles during storage and transport from the University of Maryland to Charleston, S.C. […] Encouraged by these unanticipated results, the range of exogenous trehalose employed was expanded to 0.2-0.8M and compared −1, −5 and −15° C./minute cooling rates.
In the preliminary experiments, the DMSO controls were clearly the best at the 1° C./minute cooling rate (65.3±2.7% of untreated controls), however, the best overall outcome was the 0.2M trehalose group at the −15° C./minute cooling rate (78.9±3.5% of untreated controls).

Pan T-cells [2] = test: Pan T-cell metabolic activity after cryopreservation (resazurin dye); conditions: −15° C./minute
Procedure: (§1) Experiments were performed to assess 0.2-0.8M concentrations of extracellular trehalose combined with several concentrations of 0-5% DMSO and compared with the positive control, Cryostor-5, that contains 5% DMSO.
(§2) Pan T-cells were grown and expanded. The T-cells were then harvested and counted. Approximately 10×10^6 cells were used for each sample. Cells were resuspended in the various combinations of DMSO and trehalose in 1 mL and allowed to equilibrate on ice for 20 minutes. Samples were cooled in a CRF at −15° C./minute to −80° C. then moved to liquid nitrogen vapor phase storage for approximately 10 days. After storage, samples were thawed rapidly in a 37° C. water bath, transferred to a 15 mL centrifuge tube and diluted with 10 mL culture medium. An aliquot was taken for cell counting. […] Cells were allowed to recover for 60 minutes in a 37° C. incubator before viability was measured using resazurin dye (300 μl). The cells were left for 3 hours at 37° C. before the plate was read using a fluorescent microplate reader at an excitation wavelength of 544 nm and an emission wavelength of 590 nm. […]
(§3) In FIGS. 3A and 3B, cell survival after cryopreservation at −15° C./minute using combinations of DMSO and trehalose. […] Cell counts, live and dead, (A) as well as metabolic activity (B) was measured. […]

Pan T-cells [3] = test: Pan T-cell survival after cryopreservation, live and dead cell counts (trypan blue); conditions: trehalose alone, no DMSO; −15° C./minute
Procedure: as §1, §2, §3

Row | Structure (SMILES) | hMSC viability after cryopreservation [1] | cell metabolic activity, difference from control Cryostor-5 (Pan T-cells [2]; 0% DMSO with 0.2M trehalose, p>0.05) | cell metabolic activity, difference from control Cryostor-5 (Pan T-cells [2]; 0% DMSO, all trehalose groups except 0.2M) | hMSC viability compared with DMSO control groups ([1]; −5° C./minute cooling rate) | hMSC viability compared with DMSO control groups ([1]; −15° C./minute cooling rate) | MSC survival of cryopreservation ([1]; trehalose present only extracellularly (used as negative control)) | protection during cryopreservation compared with control Cryostor-5 (Pan T-cells [3])
1 | C[S+](C)[O-] [DMSO, dimethyl sulfoxide, reference compound] | 65.3±2.7 % of untreated controls |  |  |  |  |  | 
2 | OC[C@H]1O[C@H](O[C@H]2O[C@H](CO)[C@@H](O)[C@H](O)[C@H]2O)[C@H](O)[C@@H](O)[C@@H]1O [trehalose] | 78.9±3.5 % of untreated controls | significant difference | no statistically significant differences | same or higher viability than the DMSO control groups | same or higher viability than the DMSO control groups | survived cryopreservation quite well | adequate protection similar to the control
